Columns and labels:
Assay in all cases: Bliss excess, mean over the matrix (fraction); higher = more synergy
HuO-3N1 (Osteosarcoma) = system: HuO-3N1 (Osteosarcoma)
How it was run: (§1)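 Cell lines in DMEM/F12 or RPMI with 10% FBS were plated in 1536-well plates, held 24 hours at 37°C, 5% CO2, then given two-drug dose matrices for 72 hours (DMSO typically 0.2%). Viability was read by CellTiter-Glo 2.0 luminescence and scaled as inhibition from 0 (vehicle wells) to 1 (blank wells). Combination Emax is the second-highest inhibition in the matrix; Bliss excess is observed combination effect minus expected EA + EB − EA·EB, EA and EB being single-agent effects.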

[1] = system: SW684 (Other Solid Carcinomas)
How it was run: as §1

[2] = system: SNU-175 (Colorectal Carcinoma)
How it was run: as §1

[3] = system: NCI-H196 (Small Cell Lung Carcinoma)
How it was run: as §1

[4] = system: EB-3 (Burkitt's Lymphoma)
How it was run: as §1

[5] = system: LOUCY (T-Lymphoblastic Leukemia)
How it was run: as §1

[6] = system: CML-T1 (Chronic Myelogenous Leukemia)
How it was run: as §1

[7] = system: Caov-3 (Ovarian Carcinoma)
How it was run: as §1

[8] = system: RERF-LC-KJ (Lung Adenocarcinoma)
How it was run: as §1

[9] = system: PANC-02-03 (Pancreatic Carcinoma)
How it was run: as §1

[10] = system: BALL-1 (B-Lymphoblastic Leukemia)
How it was run: as §1

[11] = system: OV-90 (Ovarian Carcinoma)
How it was run: as §1

[12] = system: RMG-I (Ovarian Carcinoma)
How it was run: as §1

[13] = system: Becker (Low Grade Glioma)
How it was run: as §1

[14] = system: LAMA-84 (Chronic Myelogenous Leukemia)
How it was run: as §1

[15] = system: NCI-H1155 (Non-Small Cell Lung Carcinoma)
How it was run: as §1

[16] = system: Calu-6 (Non-Small Cell Lung Carcinoma)
How it was run: as §1

[17] = system: AN3-CA (Endometrial Carcinoma)
How it was run: as §1

[18] = system: NCI-H1623 (Lung Adenocarcinoma)
How it was run: as §1

[19] = system: NCI-H1755 (Lung Adenocarcinoma)
How it was run: as §1

Row | SMILES | Bliss excess (HuO-3N1 (Osteosarcoma)) | Bliss excess [1] | Bliss excess [2] | Bliss excess [3] | Bliss excess [4] | Bliss excess [5] | Bliss excess [6] | Bliss excess [7] | Bliss excess [8] | Bliss excess [9] | Bliss excess [10] | Bliss excess [11] | Bliss excess [12] | Bliss excess [13] | Bliss excess [14] | Bliss excess [15] | Bliss excess [16] | Bliss excess [17] | Bliss excess [18] | Bliss excess [19]
1 | CN(CCO)CC[C@H](CSc1ccccc1)Nc1ccc(S(=O)(=O)NC(=O)c2ccc(N3CCC([C@@H](O)c4ccccc4-c4ccc(Cl)cc4)CC3)cc2)cc1S(=O)(=O)C(F)(F)F [AZD4320] + C[C@@H]1COCCN1C2=NC(=NC(=C2)C3(CC3)[S@](=N)(=O)C)C4=C5C=CNC5=NC=C4 [AZD6738] (first compound max 1 µM, 7x7, partner max 10 µM) | 0.0154 | -0.0548 | 0.0023 | -0.0112 | -0.0287 | -0.0092 | 0.0149 | -0.0186 | -0.0377 | -0.0584 | 0.0096 | -0.0354 | -0.13 | -0.0186 | -0.0093 | 0.0351 | -0.0258 | -0.0091 | -0.0101 | -0.0214
2 | Cc1c2c(nn1C)CSCc1cc(n(C)n1)CSc1cc(c3ccccc3c1)OCCCc1c(C(=O)O)n(C)c3c-2c(Cl)ccc13 [AZD5991] + C=CCn1c(=O)c2cnc(Nc3ccc(N4CCN(C)CC4)cc3)nc2n1-c1cccc(C(C)(C)O)n1 [AZD1775] (first compound max 1 µM, partner max 1 µM) | 0.006 | -0.0161 | -0.0185 | -0.0266 | -0.0242 | -0.003 | -0.0151 | -0.0274 | 0.0255 | -0.0195 | -0.0181 | -0.0929 | -0.0369 | -0.0319 | 0.0422 | 0.0707 | -0.0963 | -0.0512 | 0.0167 | 0.0006
3 | CN(CCO)CC[C@H](CSc1ccccc1)Nc1ccc(S(=O)(=O)NC(=O)c2ccc(N3CCC([C@@H](O)c4ccccc4-c4ccc(Cl)cc4)CC3)cc2)cc1S(=O)(=O)C(F)(F)F [AZD4320] + Cn1cnc2c(F)c(Nc3ccc(Br)cc3Cl)c(C(=O)NOCCO)cc21 [Selumetinib] (first compound max 1 µM, 7x7, partner max 3 µM) | -0.0194 | 0.0194 | 0.0316 | -0.0339 | -0.036 | 0.0255 | -0.0155 | -0.0406 | 0.0144 | -0.007 | -0.0246 | 0.0304 | -0.0401 | 0.0084 | 0.0207 | 0.0385 | -0.0019 | 0.0455 | 0.162 | 0.0081
4 | CCc1c2c(nc3ccc(O)cc13)-c1cc3c(c(=O)n1C2)COC(=O)[C@]3(O)CC [SN-38] + CN(C)CCCOc1ccc(-c2ccc3ncc4c(c3c2)n(C2CCOCC2)c(=O)n4C)cn1 [AZD0156] (first compound max 0.3 µM, 7x7, partner max 1 µM) | -0.0592 | -0.0457 | 0.0229 | -0.049 | -0.0659 | 0.0406 | 0.0241 | 0.0175 | -0.083 | -0.007 | 0.0492 | -0.012 | 0.018 | 0.0387 | 0.08 | 0.0268 | 0.0491 | -0.0446 | -0.0496 | 0.0829
5 | COc1cccc(OCCCN)c1-c1cc(Nc2cnc(C#N)cn2)n[nH]1 [Prexasertib] + CN(C)CCCOc1ccc(-c2ccc3ncc4c(c3c2)n(C2CCOCC2)c(=O)n4C)cn1 [AZD0156] (first compound max 1 µM, 7x7, partner max 1 µM) | 0.0092 | -0.0432 | 0.0462 | -0.0547 | 0.0498 | 0.0036 | -0.0328 | -0.0134 | -0.0159 | -0.0009 | 0.0043 | -0.035 | -0.04 | -0.0203 | -0.0219 | -0.0753 | -0.0507 | -0.0442 | -0.0206 | -0.011
